# Assay results from patent publication US8809232B2, “Herbicidal compositions comprising 4-amino-3-chloro-5-fluoro-6-(4-chloro-2-fluoro-3-methoxyphenyl) pyridine-2-carboxylic acid or a derivative thereof and halosulfuron, pyrazosulfuron and esprocarb” (Dow Agrosciences LLC, priority 2012, dated 2014).
# What was measured:
# [1] = tested on: BRAPP; test: Post-emergence foliar-applied herbicidal mixtures, greenhouse, direct seeded rice weeds; assay type: in vivo
# From the text: (§1) Seeds or nutlets of the desired test plant species were planted in a soil matrix prepared by mixing a loam or sandy loam soil (e.g., 28.6 percent silt, 18.8 percent clay, and 52.6 percent sand, with a pH of about 5.8 and an organic matter content of about 1.8 percent) and calcareous grit in an 80 to 20 ratio. The soil matrix was contained in plastic pots with a volume of 1 quart and a surface area of 83.6 square centimeters (cm^2). When required to ensure good germination and healthy plants, a fungicide treatment and/or other chemical or physical treatment was applied. The plants were grown for 8-22 days in a greenhouse with an approximate 14 hr photoperiod which was maintained at about 29° C. during the day and 26° C. during the night. Nutrients (Peters Excel® 15-5-15 5-Ca 2-Mg and iron chelate) were applied in the irrigation solution as needed and water was added on a regular basis. Supplemental lighting was provided with overhead metal halide 1000-Watt lamps as necessary. The plants were employed for testing when they reached the first through fourth true leaf stage.
# (§2) Treatments consisted of the acid or esters of 4-amino-3-chloro-5-fluoro-6-(4-chloro-2-fluoro-3-methoxy-phenyl)pyridine-2-carboxylic acid (Compound A), each formulated as an SC (suspension concentrate), and various herbicidal components alone and in combination. Forms of compound A were applied on an acid equivalent basis.
# (§3) Other herbicidal components were applied on an active ingredient basis and included the acetolactate synthase (ALS)-inhibiting herbicides halosulfuron-methyl formulated as Permit® 75 WDG, pyrazosulfuron-ethyl formulated as Agreen® WG or Sirius® G, and the VLCFA inhibiting herbicide esprocarb (technical grade material).
# (§4) Treatment requirements were calculated based upon the rates being tested, the concentration of active ingredient or acid equivalent in the formulation, and a 12 mL application volume at a rate of 187 L/ha.
# (§5) For treatments comprised of formulated compounds, measured amounts of compounds were placed individually in 25 mL glass vials and diluted in a volume of 1.25% (v/v) Agri-Dex® crop oil concentrated to obtain 12× stock solutions. […] Application solutions were prepared by adding an appropriate amount of each stock solution (e.g., 1 mL) and diluted to the appropriate final concentrations with the addition of 10 mL of an aqueous mixture of 1.25% (v/v) crop oil concentrate so that the final spray solutions contained 1.25+/−0.05% (v/v) crop oil concentrate.
# (§6) For treatments comprised of technical compounds, weighed amounts can be placed individually in 25 mL glass vials and dissolved in a volume of 97:3 v/v acetone/DMSO to obtain 12× stock solutions. […] Application solutions can be prepared by adding an appropriate amount of each stock solution (e.g., 1 mL) and diluted to the appropriate final concentrations with the addition of 10 mL of an aqueous mixture of 1.5% (v/v) crop oil concentrate so that the final spray solutions contain 1.25% (v/v) crop oil concentrate. When technical materials are used, the concentrated stock solutions can be added to the spray solutions so that the final acetone and DMSO concentrations of the application solutions are 16.2% and 0.5%, respectively.
# (§7) For treatments comprised of formulated and technical compounds, weighed amounts of the technical materials were placed individually in 25 mL glass vials and dissolved in a volume of 97:3 v/v acetone/DMSO to obtain 12× stock solutions, and measured amounts of the formulated compounds were placed individually in 25 mL glass vials and diluted in a volume of 1.5% (v/v) crop oil concentrate or water to obtain 12× stock solutions. […] Application solutions were prepared by adding an appropriate amount of each stock solution (e.g., 1 mL) and diluted to the appropriate final concentrations with the addition of an appropriate amount of an aqueous mixture of 1.5% (v/v) crop oil concentrate so that the final spray solutions contained 1.25% (v/v) crop oil concentrate. […]
# [2] = tested on: DIGSA; test: as above; assay type: in vivo, Digitaria sanguinalis (L.) Scop.
# From the text: as §1, §2, §3, §4, §5, §6, §7
# [3] = tested on: SCPMA; test: In-water applied herbicidal mixtures, greenhouse, transplanted paddy rice weeds; assay type: in vivo
# Procedure: (§8) Weed seeds or nutlets of the desired test plant species were planted in puddled soil (mud) prepared by mixing a shredded, non-sterilized mineral soil (50.5 percent silt, 25.5 percent clay, and 24 percent sand, with a pH of about 7.6 and an organic matter content of about 2.9 percent) and water at a 1:1 volumetric ratio. The prepared mud was dispensed in 365 mL aliquots into 16-ounce (oz.) non-perforated plastic pots with a surface area of 86.59 square centimeters (cm^2) leaving a headspace of 3 centimeters (cm) in each pot Mud was allowed to dry overnight prior to planting or transplanting. Rice seeds were planted in Sun Gro MetroMix® 306 planting mixture, which typically has a pH of 6.0 to 6.8 and an organic matter content of about 30 percent, in plastic plug trays. Seedlings at the second or third leaf stage of growth were transplanted into 840 mL of mud contained in 32-oz. non-perforated plastic pots with a surface area of 86.59 cm^2 4 days prior to herbicide application. The paddy was created by filling the headspace of the pots with 2.5 to 3 cm of water. When required to ensure good germination and healthy plants, a fungicide treatment and/or other chemical or physical treatment was applied. The plants were grown for 4-22 days in a greenhouse with an approximate 14 hr photoperiod which was maintained at about 29′C during the day and 26° C. during the night. Nutrients were added as Osmocote® (19:6:12, N:P:K^+ minor nutrients) at 2 g per 16-oz. pot and 4 g per 32-oz. pot. Water was added on a regular basis to maintain the paddy flood, and supplemental lighting was provided with overhead metal halide 1000-Watt lamps as necessary. The plants were employed for testing when they reached the first through fourth true leaf stage.
# as §2, with “(compound A)” for “(Compound A),”, “concentrate)” for “concentrate),”
# (§9) Other herbicidal components were applied on an active ingredient basis and included acetolactate synthase (ALS)-inhibiting herbicides formulated as Permit® 75 WDG, pyrazosulfuron-ethyl formulated as Agreen® WG or Sirius® G, and VLCFA inhibiting herbicide esprocarb (technical grade material).
# (§10) Treatment requirements for each compound or herbicidal component were calculated based upon the rates being tested, the concentration of active ingredient or acid equivalent in the formulation, an application volume of 2 mL per component per pot, and an application area of 86.59 cm^2 per pot.
# (§11) For formulated compounds, a measured amount was placed in an individual 100 or 200 mL glass vial and was dissolved in a volume of 1.25% (v/v) Agri-Dex® crop oil concentrate to obtain application solutions.
# (§12) For technical grade compounds, a weighed amount was placed in an individual 100 to 200 mL glass vial and was dissolved in a volume of acetone to obtain concentrated stock solutions. […] The concentrated stock solutions obtained were diluted with an equivalent volume of an aqueous mixture containing 2.5% (v/v) crop oil concentrate so that the final application solutions contained 1.25% (v/v) crop oil concentrate.
# (§13) Applications were made by injecting with a pipetter appropriate amounts of the application solutions, individually and sequentially, into the aqueous layer of the paddy. Control plants were treated in the same manner with the solvent blank. Applications were made so that all treated plant material received the same concentrations of acetone and crop oil concentrate.
# (§14) The treated plants and control plants were placed in a greenhouse as described above and water was added as needed to maintain a paddy flood. […]
# [4] = tested on: LEFCH; test: as above; assay type: in vivo, Leptochloa chinensis (L.) Nees
# Procedure: as §8, with “Water was added on a regular basis to maintain the paddy flood, and supplemental lighting was provided with overhead metal halide 1000-Watt lamps as necessary. The plants were employed for testing when they reached the first through fourth true leaf stage.” left out
# as §10
# (§15) For formulated compounds, a measured amount was placed in an individual 100 or 200 mL glass vial and was dissolved in a volume of 1.25% (v/v) Agri-Dex® crop oil concentrate to obtain application solutions. […]
# [5] = tested on: ECHOR; test: as above; assay type: in vivo, Echinochloa oryzoides (Ard.) Fritsch
# Procedure: as §8
# as §2, with “(compound A)” for “(Compound A),”, “concentrate)” for “concentrate),”
# as §9, §10, §11, §12, §13, §14
# [6] = tested on: LEFCH; test: Post-emergence foliar-applied herbicidal mixtures, greenhouse, direct seeded rice weeds; assay type: in vivo, Leptochloa chinensis (L.) Nees; settings: 35 g ae/ha
# From the text: as §1, §2, §3, §4, §5, §6, §7
# [7] = tested on: SCPJU; test: In-water applied herbicidal mixtures, greenhouse, transplanted paddy rice weeds; assay type: in vivo, Schoenoplectus juncoides (Roxb.) Palla
# Procedure: as §8
# as §2, with “(compound A)” for “(Compound A),”, “concentrate)” for “concentrate),”, “basis. […]” for “basis.”
# as §10, §15
# [8] = tested on: ECHCO; test: Post-emergence foliar-applied herbicidal mixtures, greenhouse, direct seeded rice weeds; assay type: in vivo, Echinochloa colona (L.) Link; settings: 105 g ai/ha
# From the text: as §1, with “stage. […]” for “stage.”
# as §4
# (§16) For treatments comprised of formulated compounds, measured amounts of compounds were placed individually in 25 mL glass vials and diluted in a volume of 1.25% (v/v) Agri-Dex® crop oil concentrated to obtain 12× stock solutions. […]
# (§17) For treatments comprised of formulated and technical compounds, weighed amounts of the technical materials were placed individually in 25 mL glass vials and dissolved in a volume of 97:3 v/v acetone/DMSO to obtain 12× stock solutions, and measured amounts of the formulated compounds were placed individually in 25 mL glass vials and diluted in a volume of 1.5% (v/v) crop oil concentrate or water to obtain 12× stock solutions. […]
# [9] = tested on: FIMMI; test: In-water applied herbicidal mixtures, greenhouse, transplanted paddy rice weeds; assay type: in vivo, Fimbristylis miliacea (L.) Vahl
# Procedure: as §8
# as §2, with “(compound A)” for “(Compound A),”, “concentrate)” for “concentrate),”
# as §9, §10, §11, §12
# Applications were made by injecting with a pipetter appropriate amounts of the application solutions, individually and sequentially, into the aqueous layer of the paddy. […]
# [10] = tested on: SCPJU; test: Post-emergence foliar-applied herbicidal mixtures, greenhouse, direct seeded rice weeds; assay type: in vivo, Schoenoplectus juncoides (Roxb.) Palla
# From the text: as §1, with “stage. […]” for “stage.”
# as §4, §16, §17
# [11] = tested on: CYPRO; test: In-water applied herbicidal mixtures, greenhouse, transplanted paddy rice weeds; assay type: in vivo, Cyperus rotundus L.
# Procedure: as §8
# as §2, with “(compound A)” for “(Compound A),”, “concentrate)” for “concentrate),”
# as §9, §10, §11, §12, §13, §14
# [12] = tested on: CYPIR; test: Post-emergence foliar-applied herbicidal mixtures, greenhouse, direct seeded rice weeds; assay type: in vivo, Cyperus iria L.
# From the text: as §1, §2, §3, §4, §16, §17
smiles,measurement,setting,value
"CCOC(=O)c1cnn(C)c1S(=O)(=O)NC(=O)Nc1nc(OC)cc(OC)n1 [Pyrazosulfuron-ethyl, ethyl 5-[[[[(4,6-dimethoxy-2-pyrimidinyl)amino]carbonyl]amino]sulfonyl]-1-methyl-1H-pyrazole-4-carboxylate, reference compound]",Visual Weed Control (%) - 21 DAA BRAPP Obs,[1]; 15 g ai/ha (Agreen WG),0%
same,Visual Weed Control (%) - 21 DAA BRAPP Obs,[1]; 30 g ai/ha (Agreen WG),0%
same,Visual Weed Control (%) - 21 DAA BRAPP Obs,[1]; 60 g ai/ha (Agreen WG),10%
same,Visual Weed Control (%) - 20 DAA DIGSA Obs,[2]; 120 g ai/ha (Agreen WG),23%
same,Visual Weed Control (%) - 21 DAA DIGSA Obs,[2]; 120 g ai/ha (Agreen WG),23%
same,Visual Weed Control (%) - 22 DAA SCPMA Obs,[3]; 17.5 g ai/ha (Sirius G),80%
same,Visual Weed Control (%) - 22 DAA SCPMA Obs,[3]; 35 g ai/ha (Sirius G),70%
same,Visual Weed Control (%) - 22 DAA LEFCH Obs,[4]; 17.5 g ai/ha (Sirius G),0%
same,Visual Weed Control (%) - 22 DAA LEFCH Obs,[4]; 35 g ai/ha (Sirius G),0%
same,Visual Weed Control (%) - 22 DAA ECHOR Obs,[5]; 17.5 g ai/ha (Sirius G),0%
same,Visual Weed Control (%) - 22 DAA ECHOR Obs,[5]; 35 g ai/ha (Sirius G),0%
same,Visual Weed Control (%) - 20 DAA ECHOR Obs,[5]; 70 g ai/ha (Sirius G),70%
CCCCOC(=O)c1nc(-c2ccc(Cl)c(OC)c2F)c(F)c(N)c1Cl [Compound A n-Butyl Ester],Visual Weed Control (%) - 20 DAA DIGSA Obs,[2]; 17.5 g ae/ha,13%
same,Visual Weed Control (%) - 20 DAA SCPMA Obs,[3]; 35 g ae/ha,0%
same,Visual Weed Control (%) - 20 DAA SCPMA Obs,[3]; 70 g ae/ha,0%
same,Visual Weed Control (%) - 20 DAA LEFCH Obs,[6],48%
same,Visual Weed Control (%) - 20 DAA ECHOR Obs,[5]; 35 g ae/ha,35%
same,Visual Weed Control (%) - 20 DAA ECHOR Obs,[5]; 70 g ae/ha,40%
"CCN(C(=O)SCc1ccccc1)C(C)C(C)C (stereo not drawn) [Esprocarb, S-(phenylmethyl) N-(1,2-dimethylpropyl)-N-ethylcarbamothioate]",Visual Weed Control (%) - 22 DAA BRAPP Obs,[1]; 52.5 g ai/ha,0%
same,Visual Weed Control (%) - 22 DAA BRAPP Obs,[1]; 105 g ai/ha,0%
same,Visual Weed Control (%) - 21 DAA SCPJU Obs,[7]; 105 g ai/ha,0%
same,Visual Weed Control (%) - 21 DAA SCPJU Obs,[7]; 210 g ai/ha,0%
same,Visual Weed Control (%) - 22 DAA ECHCO Obs,[8],0%
same,Visual Weed Control (%) - 21 DAA FIMMI Obs,[9]; 105 g ai/ha,0%
same,Visual Weed Control (%) - 21 DAA FIMMI Obs,[9]; 210 g ai/ha,0%
same,Visual Weed Control (%) - 22 DAA SCPJU Obs,[10]; 52.5 g ai/ha,0%
same,Visual Weed Control (%) - 22 DAA SCPJU Obs,[10]; 105 g ai/ha,0%
same,Visual Weed Control (%) - 21 DAA CYPRO Obs,[11]; 105 g ai/ha,0%
same,Visual Weed Control (%) - 21 DAA CYPRO Obs,[11]; 210 g ai/ha,50%
same,Visual Weed Control (%) - 22 DAA CYPIR Obs,[12]; 52.5 g ai/ha,0%
same,Visual Weed Control (%) - 22 DAA CYPIR Obs,[12]; 105 g ai/ha,0%
